Counter-ions that a name gives are not always drawn. Like-named read-outs stand apart in the source and are kept apart here.
Experiments:
[1] = test system: Pen.notatum CBS 19746; experiment: Fungistatic effect, serial dilution test (microtitre system); type: cell-based; conditions: Penicillium chrysogenum
Protocol: (§1) IV. Bestimmung der fungistatischen Wirkung
(§2) Die fungistatische Wirkung wurde über den Reihenverdünnungstest (Mikrotitersystem) bestimmt. Als Nährmedium diente Sabouraud-Bouillon. Das Inoculum betrug ca. 10^4 bis 10^5 KBE/ml (KBE = koloniebildende Einheiten); die Bebrütungszeit betrug 2 bis 4 Tage bei 26°C.
(§3) Es wurde die niedrigste Konzentration, die sichtbares Wachstum nicht mehr zuließ (minimale Hemmkonzentration MHK), bestimmt.
(§4) Geprüft wurden die vorstehend erwähnten Verbindungen A, B, D, E, F, H, I, K, L und M. Die Ergebnisse sind in der folgenden Tabelle 5 zusammengefaßt. Die MHK ist in µg/ml angegeben.

[2] = test system: Rhod. rubra 49; experiment: as above; type: cell-based; conditions: read-out: MHK
Protocol: as §1, §2, §3, §4

[3] = test system: Trich. mentagrophytes ATCC 9129; experiment: as above; type: cell-based; conditions: Trichophyton mentagrophytes
Protocol: as §1, §2, §3, §4

[4] = test system: Asp. niger ATCC 16404; experiment: as above; type: cell-based; conditions: Aspergillus niger
Protocol: as §1, §2, §3, §4

[5] = test system: Cand. albicans ATCC 10231; experiment: as above; type: cell-based; conditions: Candida albicans
Protocol: as §1, §2, §3, §4

[6] = test system: Sacch. carlsbergensis ATCC 9080; experiment: as above; type: cell-based; conditions: Saccharomyces pastorianus
Protocol: as §1, §2, §3, §4

[7] = Lipid lowering in the normolipaemic golden hamster; type: in vivo, Goldhamster; conditions: compared with control group fed without test substance
Description: III. Lipidsenkung am normolipämischen Goldhamster.
Diese Bestimmung wurde nach der in J. Lipid. Res. 38, 564-575, (1997) beschriebenen Methode durchgeführt. Am Ende des Versuchs wurde Gesamtcholesterol, β-Lipoprotein-Cholesterol sowie HDL-Cholesterol bestimmt und mit den Werten einer ohne Testsubstanz gefütterten Kontrollgruppe verglichen.

[8] = target: T1, ^14C-Acetat-Einbau in die mit Digitonin fällbaren Steroide (Homo sapiens, UniProt P48449); experiment: Inhibition of 14C-acetate incorporation into digitonin-precipitable steroids; type: cell-based; conditions: read-out: Prozentwerte, um die die Verbindungen den ^14C-Acetat-Einbau hemmen
T1 sequence (P48449 2-732): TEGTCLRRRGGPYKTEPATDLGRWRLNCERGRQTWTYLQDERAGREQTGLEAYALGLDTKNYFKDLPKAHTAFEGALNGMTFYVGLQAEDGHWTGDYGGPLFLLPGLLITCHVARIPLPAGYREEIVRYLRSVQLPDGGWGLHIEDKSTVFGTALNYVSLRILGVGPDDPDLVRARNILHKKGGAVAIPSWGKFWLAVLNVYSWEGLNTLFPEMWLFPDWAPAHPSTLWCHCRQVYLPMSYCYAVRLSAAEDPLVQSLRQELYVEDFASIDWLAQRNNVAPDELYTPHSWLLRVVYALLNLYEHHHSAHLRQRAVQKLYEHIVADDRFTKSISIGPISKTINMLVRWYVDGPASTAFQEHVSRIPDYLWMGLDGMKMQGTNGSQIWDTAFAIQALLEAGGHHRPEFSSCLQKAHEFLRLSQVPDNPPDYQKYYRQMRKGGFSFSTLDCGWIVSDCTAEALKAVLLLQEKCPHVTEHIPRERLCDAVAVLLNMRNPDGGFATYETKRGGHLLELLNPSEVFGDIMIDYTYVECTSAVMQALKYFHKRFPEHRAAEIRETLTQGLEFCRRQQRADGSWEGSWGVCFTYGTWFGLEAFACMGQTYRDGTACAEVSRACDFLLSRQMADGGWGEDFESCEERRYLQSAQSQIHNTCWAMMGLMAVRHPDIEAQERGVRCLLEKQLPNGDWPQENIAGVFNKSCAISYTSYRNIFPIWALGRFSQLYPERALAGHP
Description: I. Messung der Hemmung des ^14C-Acetat-Einbaus in die mit Digitonin fällbaren Steroide:
Die Untersuchung der Hemmwirkung wurde nach der in J. Lipid. Res. 37, 148-157 [1996] beschriebenen Methode bei Testkonzentrationen von 10^-8 und 10^-9 Mol/l durchgeführt.
Die Prozentwerte, um die obigen Verbindungen den ^14C-Acetat-Einbau hemmen, sind in Tabelle 1 angegeben.

[9] = test system: 2,3-Epoxisqualen-Lanosterol-Cyclase; experiment: In-vivo effect in the rat after oral administration: 2,3-epoxysqualene level in the liver; set-up: species or system Ratte
Protocol: II. Messung der in-vivo Wirkung an der Ratte nach oraler Gabe
Die Inhibierung des Enzyms 2,3-Epoxisqualen-Lanosterol-Cyclase bewirkt eine Erhöhung der 2,3-Epoxisqualenspiegel in Leber und Plasma. Die Menge an gebildetem 2,3-Epoxisqualen dient daher als direktes Maß für die Wirkstärke am Ganztier.Die Bestimmung wurde nach der in J. Lipid. Res. 38, 564-575, [1997] beschriebenen Methode nach t = 3 bzw. 8 Stunden nach Substanzgabe mit Konzentrationen von c = 0.01, 0.03, 0.1, 0.3 und 1.0 mg/kg durchgeführt. In der folgenden Tabelle 3 sind beispielhaft die Ergebnisse für die vorstehend erwähnten Substanzen A, B, C, D, E, G, H, I und K angegeben.

Compound | MIC ([1]; CBS19746, read-out: MHK) [µg/mL] | MIC [2] [µg/mL] | MIC ([3]; ATCC9129, read-out: MHK) [µg/mL] | MIC ([4]; ATCC16404, read-out: MHK) [µg/mL] | MIC ([5]; ATCC10231, read-out: MHK) [µg/mL] | MIC ([6]; ATCC9080, read-out: MHK) [µg/mL] | inhibition at 0.001 µM [8] [%] | inhibition at 0.01 µM [8] [%] | 2,3-Epoxysqualen-Konzentration in der Leber (Ratte) ([9]; c = 0.1 mg/kg, t = 3 h) [µg/g] | 2,3-Epoxysqualen-Konzentration in der Leber (Ratte) ([9]; c = 0.1 mg/kg, t = 8 h) [µg/g] | 2,3-Epoxysqualen-Konzentration in der Leber (Ratte) ([9]; c = 1.0 mg/kg, t = 3 h) [µg/g] | 2,3-Epoxysqualen-Konzentration in der Leber (Ratte) ([9]; c = 1.0 mg/kg, t = 8 h) [µg/g] | other results
Cc1ccc(OC(=O)N2CCC(Cc3ccc(CN(C)C)cc3)CC2)cc1.Cl [K, 4-[4-(Dimethylaminomethyl)benzyl] -N-(4-methylphenoxy)-carbonylpiperidin-hydrochlorid] | 256 | 64 | 8 | 64 | 64 | 512 | 49 | 82 | 0.4 | 0.4 | 24.0 | 5.5 | Gesamtcholesterol ([7]; Dosis 54.2 mg/kg/Tag): -6.8%; HDL-Cholesterol ([7]; Dosis 54.2 mg/kg/Tag): 2.3%; β-Lipoprotein-Cholesterol ([7]; Dosis 54.2 mg/kg/Tag): -21.2%
CN(C)Cc1ccc(CC2CCN(C(=O)Oc3ccc(Cl)cc3)CC2)cc1 [Verbindung H, N-(4-Chlorphenoxy)carbonyl-4-[4-(dimethylaminomethyl)-benzyl]piperidin-hydrochlorid] | 64 | 16 | 1 | 32 | 64 | 128 | 45 | 80 | 1.0 | 0.8 | 56.3 | 20.7 | Gesamtcholesterol ([7]; Dosis 6.5 mg/kg/Tag): -8.3%; HDL-Cholesterol ([7]; Dosis 6.5 mg/kg/Tag): -3.4%; β-Lipoprotein-Cholesterol ([7]; Dosis 6.5 mg/kg/Tag): -13.0%; Gesamtcholesterol ([7]; Dosis 19.9 mg/kg/Tag): -11.0%; HDL-Cholesterol ([7]; Dosis 19.9 mg/kg/Tag): -8.2%; β-Lipoprotein-Cholesterol ([7]; Dosis 19.9 mg/kg/Tag): -13.2%; Gesamtcholesterol ([7]; Dosis 62.3 mg/kg/Tag): -32.1%; HDL-Cholesterol ([7]; Dosis 62.3 mg/kg/Tag): -28.5%; β-Lipoprotein-Cholesterol ([7]; Dosis 62.3 mg/kg/Tag): -33.7%
CN(C)Cc1ccc(CC2CCN(C(=O)OCc3ccccc3)CC2)cc1.Cl [Verbindung I, N-Benzyloxycarbonyl-4-[4-(dimethylaminomethyl)benzyl]-piperidin-hydrochlorid] |  |  |  |  |  |  |  |  | 1.0 |  | 26.1 | 10.0 | MIC ([1]; CBS19746, Pen., Sabouraud-Bouillon, 2 bis 4 Tage bei 26°C, read-out: MHK): 128 µg/mL; MIC ([2]; Rhod., Sabouraud-Bouillon, 2 bis 4 Tage bei 26°C): 64 µg/mL; MIC ([3]; ATCC9129, Trich., Sabouraud-Bouillon, 2 bis 4 Tage bei 26°C, read-out: MHK): 4 µg/mL; MIC ([4]; ATCC16404, Asp., Sabouraud-Bouillon, 2 bis 4 Tage bei 26°C, read-out: MHK): 64 µg/mL; MIC ([5]; ATCC10231, Cand., Sabouraud-Bouillon, 2 bis 4 Tage bei 26°C, read-out: MHK): 256 µg/mL; MIC ([6]; ATCC9080, Sacc., Sabouraud-Bouillon, 2 bis 4 Tage bei 26°C, read-out: MHK): 512 µg/mL; Gesamtcholesterol ([7]; Dosis 47.1 mg/kg/Tag): -23.1%; HDL-Cholesterol ([7]; Dosis 47.1 mg/kg/Tag): -17.6%; β-Lipoprotein-Cholesterol ([7]; Dosis 47.1 mg/kg/Tag): -32.9%; inhibition at 0.01 µM ([8]; Testkonzentration 10^-8 Mol/l): 85%; inhibition at 0.001 µM ([8]; Testkonzentration 10^-9 Mol/l): 47%
